According to ChEMBL document CHEMBL3580641, “Bioactive Maleic Anhydrides and Related Diacids from the Aquatic Hyphomycete Tricladium castaneicola” (J Nat Prod, 2015):
Active and inactive are the calls of the source. No cut-off for these calls is given here.

Tests used:
B16 = experiment: Cytotoxicity against mouse B16 cells assessed as cell viability after 48 hrs by MTT assay; type: functional, cell-based; conditions: B16, 48 h
Phytophthora capsici = experiment: Antifungal activity against Phytophthora capsici NBRC 30696 after 22 to 24 hrs by paper disk diffusion method; type: functional, organism-based

With CC(=O)O[C@H]1C(=O)[C@@]2(C)[C@H]([C@H](OC(=O)c3ccccc3)[C@]3(O)C[C@H](OC(=O)[C@H](O)[C@@H](NC(=O)c4ccccc4)c4ccccc4)C(C)=C1C3(C)C)[C@]1(OC(C)=O)CO[C@@H]1C[C@@H]2O [PACLITAXEL] the IC50 (B16) was 56 µM.
In the case of CC1=C(/C=C/CCCCC(C)O)C(=O)OC1=O (stereo unspecified), the Activity (Phytophthora capsici) is reported as “inactive”.
CC1=C(/C=C/CCC/C=C/CO)C(=O)OC1=O was tested, and the Activity (Phytophthora capsici) was “inactive”.
C[C@@H]1[C@H](O)[C@@H](C)/C=C/C=C/C=C/C=C/C=C/C=C/C=C/[C@H](O[C@@H]2O[C@H](C)[C@@H](O)[C@H](N)[C@@H]2O)C[C@@H]2O[C@](O)(C[C@@H](O)C[C@@H](O)[C@H](O)CC[C@@H](O)C[C@@H](O)CC(=O)O[C@H]1C)C[C@H](O)[C@H]2C(=O)O was tested, and the Activity (Phytophthora capsici) was “Active”.
For C=C(C(=O)O)/C(=C\CCCC[C@@H](O)CC)C(=O)O, the Activity (Phytophthora capsici) was “Active”.
In the case of CCCCCC/C=C/C(C(=O)OC)=C(\C)C(=O)OC, the Activity (Phytophthora capsici) is reported as “Active” and the IC50 (B16) is reported as 30 µM.
In the case of CCCCCC/C=C/C1=C(C)C(=O)OC1=O, the Activity (Phytophthora capsici) is reported as “Active” and the IC50 (B16) is reported as 80 µM.
For CC1=C(/C=C/CCC/C=C/C(=O)O)C(=O)OC1=O, the Activity (Phytophthora capsici) was “Active”.
With C=C(C(=O)O)/C(=C\CCCCCCCO)C(=O)O the Activity (Phytophthora capsici) was “Active”.
